Measured values reported in patent US4921861A, “Pharmaceutical compositions” (BASF Aktiengesellschaft, priority 1987, dated 1990).
“Also recorded” adds a separate entry of the source. Where two headings read alike, the source gives them in different places.

Key:
inactine narcosis time = assay: narcosis potentiating effect, inactine narcosis; type: in vivo, rats
Excerpt: (§1) The pharmacological activity of 3-amino-4-ethylthio-quinoline is substantiated by the following tests. As test compound 3-amino-4-ethylthio-quinoline-hydrochloride (referred to further as "Compound A") is used.
(§2) The narcosis potentiating effect of Compound A (on rats) is very strong if inactine is used.

[1] = tested on: spasms induced by tetracor; assay: spasmolytic effect on spasms induced by tetracor; type: in vivo
Excerpt: as §1

rats [2] = assay: conflict test: anxiolytic (punished) and sedative (unpunished) effect on water consumption; type: in vivo, Male CFY rats; settings: for water uptake, without electric current / water uptake, with electric current: 0.5 hour; for minimal effective dose: Rattus norvegicus, sc, s.c.
Procedure: as §1
Anxiolytic and sedative effects are studied according to the following conflict test. […] On the other hand, sedative effect can be observed but in a dose of 25 mg/kg. Thus the ratio of the anxiolytic and sedative doses amounts to 25,000: 2.5=10,000. The same value of chlordiazepoxide is 10:0.1=100. It appears that in the case of Compound A the dissociation between the sedative and anxiolytic doses is extremely high.
The essential strategy for measuring the anti-anxiety effect of a drug is to check its activity in a conflict situation. We elicit a rewarded response, then suppress that response by punishing it when it occurs and the anti-anxiety effect is measured by the drug-induced increase in punished responding, whereas the sedative effect is measured by the drug-induced decrease of unpunished responding.
A rat, deprived of food for 96 hours and supplied with water ad libitum, drinks about 7 ml water during the 4th day of food deprivation, but needs 35 ml water daily when supplied with dry food [for review see Knoll, J. J., Neural Transm. 59, 163-194 (1984)]. This means that when we circuit the drinking tube and the grid floor of the cage and the rat is regularly shocked by trying to drink, the very hungry animal, which cannot eat without drinking, is maximally forced to overcome the hindrance. This is a sensitive test to check the anti-anxiety effect of a compound.
Male CFY rats, weighing 230-250 g, fed with standard food pellets and supplied with tap water ad libitum, were kept under controlled standard environmental conditions (room temperature between 22°-24° C.) in groups of ten for two weeks until used in the experiment. The rats kept in single cages during starvation were deprived of food for 96 hours and supplied with tap water ad libitum before the experiment.
Another aspect of the selection of the animals for the experiment was their visible physical fitness and normal activity after starvation. Less than 10 percent of the rats were excluded from the experiment because of insufficient physical fitness.
A clear Plexiglass box (39×27×12 cm) with a stainless-steel grid floor supplied with a tray for the food pellets and with a drinking tube was used for the experiment. The grid floor, the drinking tube and an electric stimulator (Grass S48) were connected and electric shocks in this circuit were delivered for 10 s duration with 20 s intervals. The parameters of the current (100V; 25 ohm; 7.5 ms; 5 Hz) were empirically selected using those electric shocks which inhibited the water consumption of the very hungry rats to one third of the control (unpunished) level.
The rats spend one hour in the apparatus after 96 hours of food deprivation. The very hungry rats eat 5-6 g of food pellets during the first hour of the feeding period after the long starvation. […] In the punished situation the consumption was reduced to less than 3 ml.
The drugs were administered parenterally in doses of 0.5 ml/100 g body weight. We refrained from the oral administration of the compounds because of the long term food deprivation.

acute toxicity (LD50) = settings: rat, in vivo, rats
Excerpt: as §1

"hot-plate" test = type: in vivo
Excerpt: as §1

rats [3] = assay: algolytic test; type: in vivo
Excerpt: as §1
Compound A is ineffective in the algolytic test (on rats).

[4] = tested on: hexobarbital narcosis time; assay: narcosis potentiating effect, hexobarbital narcosis; type: in vivo, rats; settings: compared with inactine
Excerpt: as §1, §2

calypsol narcosis time = assay: narcosis time of non-barbiturate phenyclidine derivative (calypsol); type: in vivo, rats
[5] = tested on: unconditioned avoidance reflex; assay: modified jumping test; type: in vivo; settings: 50 and 100 mg p.o.
Excerpt: as §1

spontaneous motility = assay: spontaneous motility; type: in vivo; settings: rats
Excerpt: as §1

[6] = tested on: one-way conditioned avoidance; assay: one-way conditioned avoidance test (screening test I); type: in vivo; settings: 100 mg/kg p.o.
Excerpt: as §1

[7] = tested on: two-way conditioned avoidance reflex; assay: shuttle box (two-way conditioned avoidance reflex); type: in vivo; settings: rats, 100 mg/kg p.o.
Excerpt: as §1

metabolism = assay: influence on metabolism; type: in vivo; settings: rats, 100 mg/kg p.o.
Excerpt: as §1

benzodiazepine receptors = assay: displacement of diazepame from benzodiazepine receptors; type: binding

## CCSc1c(N)cnc2ccccc12 [3-amino-4-ethylthio-quinoline]
Inactine narcosis time; general statement
  narcosis potentiating effect: particularly potent anxiolytic and narcosis potentiating effect
[1]; general statement
  anticonvulsive effect: devoid of sedative and anticonvulsive effects
Rats [2]; general statement
  anxiolytic effect: particularly potent anxiolytic; also recorded: highly selective anxiolytic effect
  sedative effect: devoid of sedative

## CCSc1c(N)cnc2ccccc12.Cl [Compound A, 3-amino-4-ethylthio-quinoline-hydrochloride]
Acute toxicity (LD50); sc
  LD50: 320 mg/kg
Acute toxicity (LD50); oral
  LD50: 420 mg/kg
"hot-plate" test; oral
  ED50: 49 mg/kg
"hot-plate" test; sc
  ED50: 40 mg/kg
Rats [3]
  activity in the algolytic test: ineffective
Inactine narcosis time; p.o., rats
  ED500 (dose which causes a five-fold prolongation of the inactine narcosis time): 3.4 mg/kg
Inactine narcosis time; rats, inactine
  narcosis potentiating effect: very strong
Inactine narcosis time; s.c., rats
  ED500 (dose which causes a five-fold prolongation of the inactine narcosis time): 3.5 mg/kg
[4]
  prolongation of hexobarbital narcosis time: to a much weaker extent
Calypsol narcosis time
  effect on narcosis time of calypsol: does not lengthen the narcosis time
[1]; 25 and 100 mg/kg p.o.
  spasmolytic effect on spasms induced by tetracor: no spasmolytic effect
[5]
  inhibition of the unconditioned avoidance reflex: does not inhibit
Spontaneous motility; 25 mg/kg
  inhibition of spontaneous motility: inactive
Spontaneous motility; 50 and 100 mg/kg p.o.
  inhibition of spontaneous motility: moderately in a dose-independant manner
[6]
  inhibiting effect in one-way conditioned avoidance test: very weak inhibiting effect
[7]
  inhibition of learning ability: inhibits learning ability on rats significantly
metabolism
  influence on metabolism: does not influence metabolism
Rats [2]; 0.25 mg/kg s.c., 10 animals
  water uptake, without electric current: 6.1 ± 0.46 mL
Rats [2]; 0.25 mg/kg s.c., 10 animals, p < 0.05
  water uptake, with electric current: 3.3 ± 0.45 mL
Rats [2]; 5 mg/kg s.c., 10 animals
  water uptake, without electric current: 7.2 ± 0.37 mL
Rats [2]; 10 mg/kg s.c., 10 animals
  water uptake, without electric current: 6.9 ± 0.43 mL
Rats [2]; 25 mg/kg s.c., 7 animals, p < 0.01
  water uptake, without electric current: 3.4 ± 0.60 mL
Rats [2]; 2.5 γ/kg s.c., 10 animals, p < 0.05
  water uptake, with electric current: 3.4 ± 0.43 mL
Rats [2]; 5 γ/kg s.c., 10 animals, p < 0.001
  water uptake, with electric current: 4.1 ± 0.66 mL
Rats [2]; 10 γ/kg s.c., 10 animals
  water uptake, with electric current: 2.7 ± 0.33 mL
Rats [2]; 25 γ/kg s.c., 10 animals
  water uptake, with electric current: 2.8 ± 0.38 mL
Rats [2]; with electric current, read-out: dose significantly increasing water consumption punished by trains of electric shock (anxiolytic dose)
  minimal effective dose: 0.0025 mg/kg
Rats [2]; without electric current, read-out: dose at which sedative effect can be observed
  minimal effective dose: 25 mg/kg
Rats [2]; general statement
  anxiolytic effect: extremely active anxiolytic agent
Rats [2]
  ratio of the anxiolytic and sedative doses: 10,000
Benzodiazepine receptors
  displacement of diazepame from the benzodiazepine receptors: displaces diazepame from the benzodiazepine receptors

## CNC1=Nc2ccc(Cl)cc2C(c2ccccc2)=[N+]([O-])C1 [chlordiazepoxide, reference compound]
Rats [2]
  ratio of the anxiolytic and sedative doses: 100
